Earlier results as cited in patent publication US8758740B2, “Composition for promoting ketone body production” (Earthus, Inc, priority 2007, dated 2014).
Like-named read-outs stand apart in the source and are kept apart here.

Legend:
[1] = dog
[2] = single oral bolus, 10 g of the cyclic trimer

blood ketone body level ([1]; meat with 23.5 g cyclic trimer four times over 9 hours, after the third administration (at 6 hours)): 30 times of the normal level | blood hydroxybutyric acid level ([1]; meat with 23.5 g cyclic trimer four times over 9 hours, within 30 minutes from the first administration): about 50 times of the normal level | highest blood hydroxybutyric acid level [1, 2]: more than 5 times of the normal level | time of the highest blood hydroxybutyric acid level from the administration [1, 2]: 90 min | blood level of ketone bodies (80 minutes after oral administration of diet containing 11 wt % of the trimer): 1.8 times of the normal level | blood level of ketone bodies (150 minutes after oral administration of diet containing 11 wt % of the trimer): 2.4 times of the normal level
SMILES: C[C@@H]1CC(=O)O[C@H](C)CC(=O)O[C@H](C)CC(=O)O1 [cyclic trimer]
